Test results published in ChEMBL document CHEMBL1201862, “PubChem BioAssay data set” (2004).
Activity calls are given as the source filed them.

Key:
[1] = ADAM10 protease inhibitors, dose response, selectivity assay for ADAM17 exosite inhibitor project, biochemical, FRET peptide substrate, recombinant human ADAM10 (AID 743259);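 also: ADAM10 enzyme cleaving a FRET peptide substrate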
[2] = biological target: T1, Disintegrin and metalloproteinase domain-containing protein 17 (Homo sapiens, UniProt P78536); assay: exosite inhibitors of ADAM17, dose response, biochemical (AID 743260)
[3] = biological target: T1, Disintegrin and metalloproteinase domain-containing protein 17; assay: ADAM17 protease inhibitors, dose response, counter-screen for ADAM10 exosite inhibitor project, biochemical, quenched FRET substrate (AID 743253)
[4] = ADAM10 inhibitors, peptide cleavage, dose response, biochemical, QFRET (AID 743254);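 also: ADAM10 enzyme with the DM2 quenched FRET peptide as substrate; EDANS fluorescence gain as the protease cuts the substrate; inhibitor potency against ADAM10 proteolytic activity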
[5] = biological target: NAD-dependent protein deacylase sirtuin-5, mitochondrial (Homo sapiens, UniProt Q9NXA8); assay: SIRT5 desuccinylase inhibitors, dose response, biochemical, fluorescence imaging, cherry-pick, set 5 (AID 720591);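 also: desuccinylation of succinyl peptide AMC substrate read as fluorescence after trypsin release; potency of inhibitors that lower fluorescence and may act on trypsin instead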
[6] = biological target: T2, Tyrosine-protein phosphatase non-receptor type 7 (Homo sapiens, UniProt P35236); assay: inhibitors of human HePTP phosphatase, […], biochemical, absorbance, leukemia target (AID 521); format: functional
T2 sequence (P35236 whole entry): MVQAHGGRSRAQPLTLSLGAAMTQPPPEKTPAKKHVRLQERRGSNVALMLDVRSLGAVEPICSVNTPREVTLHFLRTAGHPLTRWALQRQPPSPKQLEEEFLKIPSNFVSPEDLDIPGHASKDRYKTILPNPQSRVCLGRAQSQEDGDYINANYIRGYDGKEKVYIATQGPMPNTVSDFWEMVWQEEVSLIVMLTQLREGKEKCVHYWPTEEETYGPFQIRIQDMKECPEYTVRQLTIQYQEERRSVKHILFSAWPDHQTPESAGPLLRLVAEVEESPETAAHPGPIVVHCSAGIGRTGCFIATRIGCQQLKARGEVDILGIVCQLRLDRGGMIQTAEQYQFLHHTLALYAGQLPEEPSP

[7] = biological target: T3, Fructose-bisphosphate aldolase (Mycobacterium tuberculosis, UniProt P9WQA3); assay: Fluorescence-based biochemical high throughput dose response assay for inhibitors of the fructose-bisphosphate aldolase (FBA) of M. tuberculosis.; format: functional
T3 sequence (P9WQA3 whole entry): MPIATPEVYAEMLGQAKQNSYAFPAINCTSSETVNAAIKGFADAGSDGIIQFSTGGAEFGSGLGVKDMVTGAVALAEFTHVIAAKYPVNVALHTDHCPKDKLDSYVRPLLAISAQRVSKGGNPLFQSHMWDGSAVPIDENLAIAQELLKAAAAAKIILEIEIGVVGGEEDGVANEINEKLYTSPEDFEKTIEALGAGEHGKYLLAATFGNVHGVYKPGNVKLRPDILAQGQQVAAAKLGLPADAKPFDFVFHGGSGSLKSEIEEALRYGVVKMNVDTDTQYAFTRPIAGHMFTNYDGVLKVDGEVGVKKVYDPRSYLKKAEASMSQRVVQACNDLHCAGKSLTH

fMet-Leu-Phe receptor = biological target: T4, fMet-Leu-Phe receptor (Homo sapiens, UniProt P21462); assay: FPR ligands, dose response (AID 519); format: functional
T4 sequence (P21462 whole entry): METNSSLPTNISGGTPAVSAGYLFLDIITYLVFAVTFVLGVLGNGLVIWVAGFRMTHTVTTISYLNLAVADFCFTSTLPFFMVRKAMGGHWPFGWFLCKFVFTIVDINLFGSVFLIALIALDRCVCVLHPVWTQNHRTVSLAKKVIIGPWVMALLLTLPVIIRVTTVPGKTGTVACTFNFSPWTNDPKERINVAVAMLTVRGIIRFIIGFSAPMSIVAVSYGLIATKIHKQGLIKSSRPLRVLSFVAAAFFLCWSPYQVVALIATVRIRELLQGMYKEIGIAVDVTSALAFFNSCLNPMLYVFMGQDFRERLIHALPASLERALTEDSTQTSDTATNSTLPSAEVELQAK

Streptococcus = assay: Group A Streptococcus viability loss, dose response, counter-screen for streptokinase expression inhibitor project, luminescence, BacTiterGlo (AID 1915); format: functional, organism-based;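 also: potency for reduction of bacterial viability or growth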
Beta-lactamase [8] = biological target: T5, Beta-lactamase (Pseudomonas aeruginosa, UniProt Q79MP6); assay: IMP-1 metallo-beta-lactamase inhibitors, dose response, selectivity assay for VIM-2 inhibitor project, biochemical, epi-absorbance (AID 1920)
Streptokinase A = biological target: T6, Streptokinase A (Streptococcus pyogenes serotype M1, UniProt P10520); assay: S. pyogenes streptokinase expression inhibitors, potency, dose response, plasminogen activation absorbance, OD405 (AID 1914); format: functional, Streptococcus pyogenes M1 GAS;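 also: secreted streptokinase activity via plasminogen activation per viability signal from cell pellet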
T6 sequence (P10520 whole entry): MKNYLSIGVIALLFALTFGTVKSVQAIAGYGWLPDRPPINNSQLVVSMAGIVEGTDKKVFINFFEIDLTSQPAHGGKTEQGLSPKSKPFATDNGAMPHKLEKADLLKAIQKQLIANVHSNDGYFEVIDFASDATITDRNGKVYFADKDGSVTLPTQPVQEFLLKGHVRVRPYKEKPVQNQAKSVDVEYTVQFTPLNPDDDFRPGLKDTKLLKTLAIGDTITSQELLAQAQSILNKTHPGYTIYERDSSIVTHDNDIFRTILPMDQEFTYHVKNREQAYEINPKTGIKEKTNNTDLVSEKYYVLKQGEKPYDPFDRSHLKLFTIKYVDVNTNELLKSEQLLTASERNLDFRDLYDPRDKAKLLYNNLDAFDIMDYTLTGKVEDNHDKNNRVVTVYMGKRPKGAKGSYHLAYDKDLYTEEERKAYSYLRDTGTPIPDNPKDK

Beta-lactamase [9] = biological target: Beta-lactamase (Salmonella choleraesuis (strain SC-B67), UniProt Q5J463); assay: Epi-absorbance-based counterscreen for selective VIM-2 inhibitors: dose response biochemical high throughput screening assay to identify inhibitors of TEM-1 serine-beta-lactamase.
Beta-lactamase [10] = biological target: T5, Beta-lactamase; assay: […] counterscreen for selective VIM-2 inhibitors: dose response biochemical high throughput screening assay to identify inhibitors of IMP-1 metallo-beta-lactamase.
[11] = system: Streptococcus sp. 'group A'; assay: growth inhibition of control SK(-) GAS strain, dose response, counter-screen for streptokinase expression inhibitor project, luminescence, kanamycin, BacTiterGlo, confirmation (AID 1900); format: functional, organism-based
[12] = biological target: T7, Voltage-gated N-type calcium channel alpha-1B subunit/Amyloid beta A4 precursor protein-binding family A member 1 (Homo sapiens, UniProt Q00975+Q02410); format: protein assay
[13] = biological target: T7, Voltage-gated N-type calcium channel alpha-1B subunit/Amyloid beta A4 precursor protein-binding family A member 1; format: protein assay; remark: listed apart in the source
[14] = biological target: T8, Probable nicotinate-nucleotide adenylyltransferase (Staphylococcus aureus (strain N315), UniProt P65502); format: functional, Staphylococcus aureus subsp. aureus N315; settings: read-out: IC50_Mean;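 as to IC50 Mean: confirmatory dose-response retesting of NadD inhibitor hits first found in an ultra-high-throughput screen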
[15] = biological target: T9, Zinc finger protein mex-5 (Caenorhabditis elegans, UniProt Q9XUB2); assay: MEX-5/TCR-2 RNA interaction inhibitors, dose response, biochemical, C. elegans, fluorescence polarization (AID 1960)
T9 sequence (Q9XUB2 whole entry): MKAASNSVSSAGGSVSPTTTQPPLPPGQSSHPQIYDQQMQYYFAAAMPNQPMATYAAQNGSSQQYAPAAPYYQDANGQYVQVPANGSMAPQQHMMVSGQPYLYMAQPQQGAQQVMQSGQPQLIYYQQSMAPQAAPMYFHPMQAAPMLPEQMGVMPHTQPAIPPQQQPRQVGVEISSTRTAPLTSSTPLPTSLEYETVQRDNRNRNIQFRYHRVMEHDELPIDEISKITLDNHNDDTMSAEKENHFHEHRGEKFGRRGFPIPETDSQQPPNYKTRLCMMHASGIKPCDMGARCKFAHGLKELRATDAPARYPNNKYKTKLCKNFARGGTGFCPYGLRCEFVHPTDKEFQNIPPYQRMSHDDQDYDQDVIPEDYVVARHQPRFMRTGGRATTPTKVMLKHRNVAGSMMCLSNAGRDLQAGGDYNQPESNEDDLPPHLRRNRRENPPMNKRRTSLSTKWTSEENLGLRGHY

[16] = biological target: T10, RNA-binding protein pos-1 (Caenorhabditis elegans, UniProt G5EF15); assay: inhibitors of POS-1/mex-3 RNA binding, dose response, biochemical, fluorescence polarization (AID 1964);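 also: purified POS-1 fused to maltose binding protein made in E. coli; potency of compounds blocking POS-1 binding to fluorescent RNA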
T10 sequence (G5EF15 whole entry): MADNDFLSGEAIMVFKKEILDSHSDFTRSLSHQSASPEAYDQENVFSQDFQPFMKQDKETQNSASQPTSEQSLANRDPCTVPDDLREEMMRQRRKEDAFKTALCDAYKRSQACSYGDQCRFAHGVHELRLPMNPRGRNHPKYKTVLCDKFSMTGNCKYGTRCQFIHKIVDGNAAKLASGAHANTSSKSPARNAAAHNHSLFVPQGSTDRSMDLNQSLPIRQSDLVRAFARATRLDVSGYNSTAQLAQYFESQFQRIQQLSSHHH

[17] = biological target: T8, Probable nicotinate-nucleotide adenylyltransferase; format: functional, Staphylococcus aureus subsp. aureus N315
[18] = Luminescence Cell-Based Dose Retest to Confirm Inhibitors of Cancer Stem Cells. [Related pubchem assays (depositor defined):AID2717, AID2721]; format: functional; settings: Homo sapiens
[19] = biological target: T11, COUP transcription factor 2 (Homo sapiens, UniProt P24468); assay: Luminescence-based cell-based high throughput dose response assay to identify inhibitors of COUP-TFII (NR2F2).; format: functional;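 also: HEK293 cells transiently cotransfected with COUP-TFII expression vector and reporter; luciferase reporter luminescence driven by COUP-TFII from the pX2-168 reporter plasmid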
T11 sequence (P24468 whole entry): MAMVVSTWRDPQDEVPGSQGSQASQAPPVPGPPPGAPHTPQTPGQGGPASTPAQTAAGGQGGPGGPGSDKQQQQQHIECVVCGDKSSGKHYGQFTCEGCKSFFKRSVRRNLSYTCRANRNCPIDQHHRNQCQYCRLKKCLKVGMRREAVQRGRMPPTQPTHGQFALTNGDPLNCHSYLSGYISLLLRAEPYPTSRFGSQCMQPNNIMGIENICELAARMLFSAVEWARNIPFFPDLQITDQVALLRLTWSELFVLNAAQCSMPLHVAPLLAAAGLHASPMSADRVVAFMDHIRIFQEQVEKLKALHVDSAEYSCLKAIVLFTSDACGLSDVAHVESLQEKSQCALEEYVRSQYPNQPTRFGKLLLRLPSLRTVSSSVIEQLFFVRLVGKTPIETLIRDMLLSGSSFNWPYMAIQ

[20] = biological target: Heat shock protein HSP 90-alpha (Homo sapiens, UniProt P07900); format: functional, organism-based
Vero = Vero cell cytotoxicity, cytotoxicity control for flavivirus capping enzyme inhibitors (AID 588742); format: functional; settings: Chlorocebus sabaeus
[21] = biological target: Protein-tyrosine kinase 2-beta (Homo sapiens, UniProt Q14289);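 also: potency of inhibitors of PYK2 kinase phosphorylation of poly-GT substrate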
[22] = P. falciparum Dd2 growth inhibitors, dose response, SYBR Green, dry powder samples, set 9 (AID 1159568); format: functional, cell-based

T5 sequence (Q79MP6 whole entry): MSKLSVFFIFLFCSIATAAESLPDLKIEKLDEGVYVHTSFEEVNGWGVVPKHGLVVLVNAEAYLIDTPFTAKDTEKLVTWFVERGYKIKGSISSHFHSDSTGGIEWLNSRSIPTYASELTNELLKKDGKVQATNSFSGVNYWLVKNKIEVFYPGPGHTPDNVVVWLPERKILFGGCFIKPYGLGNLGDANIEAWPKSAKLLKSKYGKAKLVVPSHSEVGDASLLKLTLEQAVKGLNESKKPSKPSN
Chain of NAD-dependent protein deacylase sirtuin-5, mitochondrial (Q9NXA8 whole entry): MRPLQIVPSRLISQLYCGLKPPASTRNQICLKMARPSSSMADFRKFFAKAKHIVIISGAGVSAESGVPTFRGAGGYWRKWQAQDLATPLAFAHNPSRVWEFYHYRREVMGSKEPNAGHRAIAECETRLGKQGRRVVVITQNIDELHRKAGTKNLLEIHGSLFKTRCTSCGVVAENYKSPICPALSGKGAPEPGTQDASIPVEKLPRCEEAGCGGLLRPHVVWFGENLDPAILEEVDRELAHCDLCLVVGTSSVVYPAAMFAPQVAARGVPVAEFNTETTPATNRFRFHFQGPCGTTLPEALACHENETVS
T1 sequence (P78536 whole entry, the tested form may be a part): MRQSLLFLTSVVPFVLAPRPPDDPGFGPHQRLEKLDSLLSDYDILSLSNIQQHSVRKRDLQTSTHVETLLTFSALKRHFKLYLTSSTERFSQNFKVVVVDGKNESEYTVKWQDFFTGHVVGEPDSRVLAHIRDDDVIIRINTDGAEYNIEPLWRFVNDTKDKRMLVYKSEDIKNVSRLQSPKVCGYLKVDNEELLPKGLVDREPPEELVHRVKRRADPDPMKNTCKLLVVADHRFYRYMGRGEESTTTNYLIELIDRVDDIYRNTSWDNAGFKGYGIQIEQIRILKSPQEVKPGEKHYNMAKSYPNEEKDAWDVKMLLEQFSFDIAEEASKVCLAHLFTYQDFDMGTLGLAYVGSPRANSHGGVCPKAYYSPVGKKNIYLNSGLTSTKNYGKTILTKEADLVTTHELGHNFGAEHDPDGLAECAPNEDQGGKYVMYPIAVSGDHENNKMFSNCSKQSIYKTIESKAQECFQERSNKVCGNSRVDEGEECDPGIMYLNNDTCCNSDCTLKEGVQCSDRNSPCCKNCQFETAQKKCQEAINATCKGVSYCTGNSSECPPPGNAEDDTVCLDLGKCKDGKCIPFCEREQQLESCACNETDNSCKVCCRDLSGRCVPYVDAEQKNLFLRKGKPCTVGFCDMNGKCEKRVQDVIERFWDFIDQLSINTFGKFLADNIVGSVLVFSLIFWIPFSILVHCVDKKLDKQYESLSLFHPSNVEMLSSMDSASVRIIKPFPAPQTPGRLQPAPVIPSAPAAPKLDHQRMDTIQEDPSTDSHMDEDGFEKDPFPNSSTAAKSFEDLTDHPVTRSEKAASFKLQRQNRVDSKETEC
T8 sequence (P65502 whole entry): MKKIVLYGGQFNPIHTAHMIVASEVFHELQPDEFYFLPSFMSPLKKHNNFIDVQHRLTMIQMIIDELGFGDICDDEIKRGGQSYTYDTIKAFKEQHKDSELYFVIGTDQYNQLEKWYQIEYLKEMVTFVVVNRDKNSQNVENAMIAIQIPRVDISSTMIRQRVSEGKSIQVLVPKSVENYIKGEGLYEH
T7 sequence (Q00975 whole entry): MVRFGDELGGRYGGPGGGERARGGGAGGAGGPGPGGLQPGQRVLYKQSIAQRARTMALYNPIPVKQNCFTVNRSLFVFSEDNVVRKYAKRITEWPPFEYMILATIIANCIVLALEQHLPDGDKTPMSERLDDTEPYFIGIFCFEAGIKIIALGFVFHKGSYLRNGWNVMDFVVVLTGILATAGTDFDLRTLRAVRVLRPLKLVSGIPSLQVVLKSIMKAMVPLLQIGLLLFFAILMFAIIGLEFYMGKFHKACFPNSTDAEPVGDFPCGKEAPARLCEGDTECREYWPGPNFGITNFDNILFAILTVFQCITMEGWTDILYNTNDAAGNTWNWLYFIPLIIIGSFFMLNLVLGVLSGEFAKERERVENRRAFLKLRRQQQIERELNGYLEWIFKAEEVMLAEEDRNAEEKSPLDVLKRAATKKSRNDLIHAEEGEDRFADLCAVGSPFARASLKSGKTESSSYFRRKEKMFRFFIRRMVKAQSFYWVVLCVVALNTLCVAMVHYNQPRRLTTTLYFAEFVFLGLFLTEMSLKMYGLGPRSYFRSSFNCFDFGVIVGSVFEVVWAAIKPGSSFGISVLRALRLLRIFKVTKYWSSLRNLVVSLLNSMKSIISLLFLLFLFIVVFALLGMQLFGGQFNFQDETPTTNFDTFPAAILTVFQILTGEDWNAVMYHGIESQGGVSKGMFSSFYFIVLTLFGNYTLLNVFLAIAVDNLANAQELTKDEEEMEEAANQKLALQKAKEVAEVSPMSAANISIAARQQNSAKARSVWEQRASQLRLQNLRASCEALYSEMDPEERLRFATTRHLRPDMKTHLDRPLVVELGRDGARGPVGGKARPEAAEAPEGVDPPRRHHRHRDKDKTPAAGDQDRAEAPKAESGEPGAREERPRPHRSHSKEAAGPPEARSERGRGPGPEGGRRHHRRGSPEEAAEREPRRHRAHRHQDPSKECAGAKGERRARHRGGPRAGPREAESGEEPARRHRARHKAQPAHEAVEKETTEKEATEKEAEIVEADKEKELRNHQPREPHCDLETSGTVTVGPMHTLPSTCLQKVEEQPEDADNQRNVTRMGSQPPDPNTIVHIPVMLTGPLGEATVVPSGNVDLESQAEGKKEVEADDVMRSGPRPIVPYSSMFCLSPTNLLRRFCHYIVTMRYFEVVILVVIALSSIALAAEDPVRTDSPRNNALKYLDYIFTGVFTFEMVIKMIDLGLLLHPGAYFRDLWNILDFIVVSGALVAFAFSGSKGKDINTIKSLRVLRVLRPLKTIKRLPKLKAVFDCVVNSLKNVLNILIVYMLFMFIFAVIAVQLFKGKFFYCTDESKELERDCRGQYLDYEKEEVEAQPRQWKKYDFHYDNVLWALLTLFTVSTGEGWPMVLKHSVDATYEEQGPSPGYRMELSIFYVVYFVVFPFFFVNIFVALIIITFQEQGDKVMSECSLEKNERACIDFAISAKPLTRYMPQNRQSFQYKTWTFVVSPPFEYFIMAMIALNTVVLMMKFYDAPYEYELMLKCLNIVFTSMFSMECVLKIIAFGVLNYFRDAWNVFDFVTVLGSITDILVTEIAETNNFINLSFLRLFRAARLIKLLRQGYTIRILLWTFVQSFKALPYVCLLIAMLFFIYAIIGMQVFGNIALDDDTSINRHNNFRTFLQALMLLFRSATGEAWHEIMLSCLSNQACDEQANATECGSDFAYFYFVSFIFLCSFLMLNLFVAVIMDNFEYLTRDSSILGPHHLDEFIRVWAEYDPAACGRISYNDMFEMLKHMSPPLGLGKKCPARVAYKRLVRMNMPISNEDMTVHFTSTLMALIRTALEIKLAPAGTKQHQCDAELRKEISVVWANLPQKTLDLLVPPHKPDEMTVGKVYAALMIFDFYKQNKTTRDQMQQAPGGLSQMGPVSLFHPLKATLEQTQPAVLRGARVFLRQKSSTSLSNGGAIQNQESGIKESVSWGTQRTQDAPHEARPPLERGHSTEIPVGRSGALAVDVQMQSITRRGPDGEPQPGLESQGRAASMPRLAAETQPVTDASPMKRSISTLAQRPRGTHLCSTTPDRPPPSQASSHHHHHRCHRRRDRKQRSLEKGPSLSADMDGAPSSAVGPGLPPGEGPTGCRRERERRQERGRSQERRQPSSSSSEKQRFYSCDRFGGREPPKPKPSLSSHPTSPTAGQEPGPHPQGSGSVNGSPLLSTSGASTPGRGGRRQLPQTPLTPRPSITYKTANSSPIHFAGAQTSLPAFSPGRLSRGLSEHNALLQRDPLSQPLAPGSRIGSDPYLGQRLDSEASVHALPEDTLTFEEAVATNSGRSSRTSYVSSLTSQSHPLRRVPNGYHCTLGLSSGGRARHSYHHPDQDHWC
T7 sequence (Q02410 whole entry): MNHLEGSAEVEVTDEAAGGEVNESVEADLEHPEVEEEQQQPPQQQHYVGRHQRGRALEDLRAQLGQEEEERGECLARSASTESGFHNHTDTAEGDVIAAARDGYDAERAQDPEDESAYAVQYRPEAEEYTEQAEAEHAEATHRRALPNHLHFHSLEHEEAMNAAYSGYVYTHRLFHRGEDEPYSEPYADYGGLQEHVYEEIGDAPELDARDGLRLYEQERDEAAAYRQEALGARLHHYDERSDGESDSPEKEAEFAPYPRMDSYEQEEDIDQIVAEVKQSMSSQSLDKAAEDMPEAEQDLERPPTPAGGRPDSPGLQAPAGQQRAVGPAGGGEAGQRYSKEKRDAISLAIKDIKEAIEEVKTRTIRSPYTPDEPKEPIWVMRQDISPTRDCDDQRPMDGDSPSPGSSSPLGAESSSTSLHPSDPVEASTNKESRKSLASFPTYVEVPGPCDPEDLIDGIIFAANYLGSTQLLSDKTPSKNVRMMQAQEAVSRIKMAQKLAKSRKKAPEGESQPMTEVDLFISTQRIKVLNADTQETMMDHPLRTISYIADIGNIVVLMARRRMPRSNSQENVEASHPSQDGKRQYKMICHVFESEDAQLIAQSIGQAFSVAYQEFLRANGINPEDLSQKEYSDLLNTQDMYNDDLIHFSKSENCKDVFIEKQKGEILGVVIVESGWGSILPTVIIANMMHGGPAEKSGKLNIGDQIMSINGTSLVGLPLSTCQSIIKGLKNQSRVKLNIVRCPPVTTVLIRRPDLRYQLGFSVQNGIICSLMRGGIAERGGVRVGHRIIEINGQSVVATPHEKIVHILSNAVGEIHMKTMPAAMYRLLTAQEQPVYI
Chain of Beta-lactamase (Salmonella choleraesuis (strain SC-B67), UniProt Q5J463) (Q5J463 whole entry): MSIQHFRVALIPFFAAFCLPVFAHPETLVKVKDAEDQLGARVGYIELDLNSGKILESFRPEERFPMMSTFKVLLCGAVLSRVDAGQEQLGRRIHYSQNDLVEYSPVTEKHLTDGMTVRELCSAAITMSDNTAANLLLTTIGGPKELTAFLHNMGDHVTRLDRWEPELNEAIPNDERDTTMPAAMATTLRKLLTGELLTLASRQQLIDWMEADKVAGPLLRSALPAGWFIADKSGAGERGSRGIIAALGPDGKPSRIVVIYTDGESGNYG

COc1ccc(S[C@@H](CCN2CC[C@H](C)CCC2=O)c2ccccc2)cc1
IC50 [1]: 19.3 µM (inactive)
IC50 [2]: > 69.5 µM (inactive)

COc1cccc(C(=O)NNC(=O)C(=O)Nc2ccc(C)c(Cl)c2)c1
IC50 [3]: > 69.5 µM (inactive)
IC50 [4]: 8.71 µM (active)

COc1ccc(C(=O)C2=C(O)C(=O)N(CCCN3CCOCC3)C2c2ccc(OC)cc2)cc1 (stereo unspecified)
AC50 [5]: > 30 µM (inactive)

CC1(C)CC(=O)c2cnc(NC(=O)c3ccco3)nc2C1
IC50 [6]: > 100 µM (not active)

CCOC(=O)COc1ccc2c(c1)C(=O)CC(C)(C)O2
IC50 [7]: 1.55 µM (active)

CC(C)NC(=O)c1cccc(Br)c1
AC50 [5]: > 30 µM (inactive)

Cc1cccc(Nc2ccccc2C(=O)NCc2ccco2)c1C
Ki (fMet-Leu-Phe receptor): > 66.7 µM (inactive)

Cc1cc(C)n(-c2nc(SCC(=O)O)c3c4c(sc3n2)COC(C)(C)C4)n1
EC50 (Streptococcus): > 150 µM (not active)
IC50 (Beta-lactamase [8]): > 59.6 µM (inactive)
EC50 (Streptokinase A): > 150 µM (not active)
IC50 (Beta-lactamase [9]): > 59.6 µM (inactive)
IC50 (Beta-lactamase [10]): > 59.6 µM (inactive)
EC50 [11]: 8.1 µM (active)

COc1ccc(CC(=O)Nc2ccc(-c3nnc(-c4ccc(C)cc4)o3)cc2)cc1
Ki (fMet-Leu-Phe receptor): > 66.7 µM (inactive)
IC50 [12]: > 50 µM (inactive)
IC50 [13]: 14.4 µM (active)
IC50 [6]: > 100 µM (not active)

CCCCC1=CC2=CC(=O)C(C)(OC(=O)CCc3ccccc3)C(=O)C2=CO1 (stereo unspecified)
IC50 [14]: 19.8 µM (active)
EC50 [15]: > 150 µM (not active)
EC50 [16]: 41.6 µM (active)
IC50 [17]: 8.81 µM (active)

O=[N+]([O-])c1ccc(-c2ccccc2)c([As](=O)(O)O)c1
IC50 (Beta-lactamase [8]): > 59.6 µM (inactive)
IC50 (Beta-lactamase [9]): > 59.6 µM (inactive)
IC50 (Beta-lactamase [10]): > 59.6 µM (inactive)

Cc1ccccc1N=C(NOCc1ccc(Cl)cc1Cl)c1nonc1N
AC50 [18]: 3.53 µM (active)
IC50 [4]: 13.3 µM (inactive)

Cc1ccccc1NC(=NOCc1ccc(Cl)cc1Cl)c1nonc1N
IC50 [3]: > 69.5 µM (inactive)

CC(C)(C)OC(=O)N1CCC[C@H]1c1nnc(SCc2cccc(Cl)c2)o1
AC50 [5]: > 30 µM (inactive)

O=C(/C=C/c1ccc([N+](=O)[O-])cc1)c1ccccc(=O)c1O
IC50 [19]: 9.51 µM (active)
IC50 [3]: 11.8 µM (inactive)
IC50 [4]: 8.35 µM (active)
AC50 [20]: 1.54 µM (active)
CC50 (Vero): 1.87 µM (active)

CO/C(O)=C1\C(C)=NC2=C(C(=O)CC(c3cccs3)C2)C1c1ccsc1 (stereo unspecified)
IC50 [21]: > 69.5 µM (not active)

COC(=O)[C@]12C[C@H](CC(=O)NCCCCc3ccccc3)C(=O)N(Cc3cccc4ccccc34)C1=C[C@H](C(C)C)O[C@@H]2C1CC1
IC50 [1]: > 7.72 µM (active)
IC50 [2]: > 69.5 µM (inactive)

CN(C)/C=N/c1nc2nccc(-c3cccc(Cl)c3)n2n1
IC50 [7]: 1.15 µM (active)

C[C@H]1CCCCO[C@@H](CN(C)S(=O)(=O)c2ccc(F)cc2)[C@@H](C)CN([C@@H](C)CO)C(=O)c2cc(N(C)C)ccc2O1
AC50 [22]: 2.54 µM (active)

N#C[C@H]1N[C@H](CO)[C@H]1c1ccc(C#CC2CCCCC2)cc1
AC50 [22]: 12.9 µM (active)
